Our source for the IC50 values is US11878965B2, “Inhibitors of peptidylarginine deiminases” (Gilead Sciences, Inc., priority 2020, dated 2024).

Structures are written as SMILES. pIC50: −log10 of the molar value.

The target of the assay is human PAD4 (Homo sapiens (Human), UniProt Q9UM07). In words: In Vitro PAD4 BAEE Biochemical Assay. The conditions noted are these: geometric mean of multiple experiments. In outline:
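Deimination of BAEE substrate (3 mM) measured as ammonia via o-phthalaldehyde–DTT isoindole fluorescence, 405/535 nm. Tag-free bacterially expressed human PAD4 at 5 nM with 2 mM calcium chloride, pH 7.6 MOPS buffer, 30 min compound preincubation then 2 h reaction, both at 25 °C.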

Where [1] appears, read: human PAD4, BAEE substrate, 5 nM PAD4, 2 mM calcium chloride, 3 mM BAEE.
Where [2] appears, read: recombinant PAD4 5 nM, 2 mM calcium chloride, 3 mM BAEE substrate.

Chain of human PAD4 (Q9UM07 2-663): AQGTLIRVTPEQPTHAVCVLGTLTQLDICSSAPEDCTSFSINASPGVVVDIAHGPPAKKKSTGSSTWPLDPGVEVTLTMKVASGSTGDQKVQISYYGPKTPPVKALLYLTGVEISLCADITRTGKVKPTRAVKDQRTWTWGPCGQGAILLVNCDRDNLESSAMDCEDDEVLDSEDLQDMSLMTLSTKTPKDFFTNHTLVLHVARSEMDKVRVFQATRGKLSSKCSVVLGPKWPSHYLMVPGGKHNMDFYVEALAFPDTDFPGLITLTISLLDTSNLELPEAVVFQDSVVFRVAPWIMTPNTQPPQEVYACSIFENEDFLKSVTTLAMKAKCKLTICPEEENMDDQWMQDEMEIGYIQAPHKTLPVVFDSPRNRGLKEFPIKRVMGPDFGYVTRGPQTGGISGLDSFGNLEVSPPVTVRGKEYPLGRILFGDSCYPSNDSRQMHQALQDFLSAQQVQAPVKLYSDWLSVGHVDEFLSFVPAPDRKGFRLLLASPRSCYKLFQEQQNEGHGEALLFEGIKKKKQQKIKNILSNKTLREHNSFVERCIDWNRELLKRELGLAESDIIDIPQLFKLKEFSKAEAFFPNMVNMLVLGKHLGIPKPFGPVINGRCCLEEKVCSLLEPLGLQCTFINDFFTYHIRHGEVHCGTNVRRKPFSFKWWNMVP

For orientation: pIC50 means the negative decadic logarithm of the IC50, by convention in mol/L. Take `COc1cc(C(=O)N2[C@H]3CC[C@@H]2[C@H](N)C3)cc2nc(-c3cc4ccc([C@@H](C)NC(C)=O)nc4n3CC3CC3)n(C)c12` [Example 118, N-((R)-1-(2-(5-((1R,2R,4S)-2-amino-7-azabicyclo[2.2.1]heptane-7-carbonyl)-7-methoxy-1-methyl-1H-benzo[d]imidazol-2-yl)-1-(cyclopropylmethyl)-1H-pyrrolo[2,3-b]pyridin-6-yl)ethyl)acetamide]: the pIC50 under setting [1] was 7.34.

`COc1cc(C(=O)N2C[C@H](N)[C@@H]3CC[C@H]2C3)cc2nc(-c3cc4ccc([C@@H](C)NC(=O)c5ccnc(Cl)c5)nc4n3CC3CC3)n(C)c12` [Example 298, N-((R)-1-(2-(5-((1S,4R,5R)-4-amino-2-azabicyclo[3.2.1]octane-2-carbonyl)-7-methoxy-1-methyl-1H-benzo[d]imidazol-2-yl)-1-(cyclopropylmethyl)-1H-pyrrolo[2,3-b]pyridin-6-yl)ethyl)-2-chloroisonicotinamide]: the negative-log IC50 (pIC50) under setting [2] is 7.06. `COc1cc(C(=O)N2CCC[C@@H](N)C2)cc2nc(-c3cc4ccc(N5CCCCS5(=O)=O)nc4n3CC3CC3)n(C)c12` [Example 97, (R)-(3-aminopiperidin-1-yl) (2-(1-(cyclopropylmethyl)-6-(1,1-dioxido-1,2-thiazinan-2-yl)-1H-pyrrolo[2,3-b]pyridin-2-yl)-7-methoxy-1-methyl-1H-benzo[d]imidazol-5-yl)methanone]: the pIC50 under setting [1] was 6.80. The same measure, in the same setting: the value for `COc1cc(C(=O)N2CCC[C@@H](N)C2)cc2nc(-c3cc4ccc(N(CC5CCC5)S(C)(=O)=O)nc4n3CC3CC3)n(C)c12` [Example 21, (R)-N-(2-(5-(3-aminopiperidine-1-carbonyl)-7-methoxy-1-methyl-1H-benzo[d]imidazol-2-yl)-1-(cyclopropylmethyl)-1H-pyrrolo[2,3-b]pyridin-6-yl)-N-(cyclobutylmethyl) methanesulfonamide] was 4.30; that for `COc1cc(C(=O)N2[C@H]3CC[C@@H]2[C@H](N)C3)cc2nc(-c3cc4ccc([C@@H](C)NC(=O)N5CC[C@@H](F)C5)cc4n3CC3CC3)n(C)c12` [Example 237, (R)-N-((R)-1-(2-(5-((1R,2R,4S)-2-amino-7-azabicyclo[2.2.1]heptane-7-carbonyl)-7-methoxy-1-methyl-1H-benzo[d]imidazol-2-yl)-1-(cyclopropylmethyl)-1H-indol-6-yl)ethyl)-3-fluoropyrrolidine-1-carboxamide] was 7.73. Still for that read-out and setting: the value for `COc1cc(C(=O)N2C[C@H](N)CCN2C)cc2nc(-c3cc4ccc([C@@H](C)NC(=O)C5(c6ccc(C(F)(F)F)cc6)CC5)nc4n3CC3CC3)n(C)c12` [Example 163, N-((R)-1-(2-(5-((R)-5-amino-2-methylhexahydropyridazine-1-carbonyl)-7-methoxy-1-methyl-1H-benzo[d]imidazol-2-yl)-1-(cyclopropylmethyl)-1H-pyrrolo[2,3-b]pyridin-6-yl)ethyl)-1-(4-(trifluoromethyl)phenyl)cyclopropane-1-carboxamide] was 5.39.

For `COc1cc(C(=O)N2C[C@H](N)[C@@H]3CC[C@H]2C3)cc2nc(-c3cc4ccc([C@@H](C)NC(=O)[C@@H]5C[C@H]5F)nc4n3CC3CC3)n(C)c12` [Example 288, (1S,2R)-N-((R)-1-(2-(5-((1S,4R,5R)-4-amino-2-azabicyclo[3.2.1]octane-2-carbonyl)-7-methoxy-1-methyl-1H-benzo[d]imidazol-2-yl)-1-(cyclopropylmethyl)-1H-pyrrolo[2,3-b]pyridin-6-yl)ethyl)-2-fluorocyclopropane-1-carboxamide], the negative logarithm of the IC50 (pIC50) under setting [2] is 7.15. With `COc1cc(C(=O)N2C[C@H](N)CCN2C)cc2nc(-c3cc4ccc([C@@H](C)NC(=O)c5c(F)cccc5C(F)(F)F)nc4n3CC3CC3)n(C)c12` [Example 198, N-((R)-1-(2-(5-((R)-5-amino-2-methylhexahydropyridazine-1-carbonyl)-7-methoxy-1-methyl-1H-benzo[d]imidazol-2-yl)-1-(cyclopropylmethyl)-1H-pyrrolo[2,3-b]pyridin-6-yl)ethyl)-2-fluoro-6-(trifluoromethyl)benzamide], under setting [1], the pIC50 was 6.78. For `C=CC(=O)N[C@@H]1CNC[C@H]1NC(=O)c1cc(OC)c2c(c1)nc(-c1cc3ccc(N(C(F)F)S(C)(=O)=O)nc3n1CC1CC1)n2C` [Example 80, N-((3R,4R)-4-acrylamidopyrrolidin-3-yl)-2-(1-(cyclopropylmethyl)-6-((N-(difluoromethyl)methyl)sulfonamido)-1H-pyrrolo[2,3-b]pyridin-2-yl)-7-methoxy-1-methyl-1H-benzo[d] imidazole-5-carboxamide], the pIC50 under setting [1] is 6.62.

With `COc1cc(C(=O)N2C[C@H](N)[C@@H]3CC[C@H]2C3)cc2nc(-c3cc4ccc([C@@H](C)NC(=O)c5ccccc5Cl)nc4n3CC3CC3)n(C)c12` [Example 293, N-((R)-1-(2-(5-((1S,4R,5R)-4-amino-2-azabicyclo [3.2.1]octane-2-carbonyl)-7-methoxy-1-methyl-1H-benzo[d]imidazol-2-yl)-1-(cyclopropylmethyl)-1H-pyrrolo[2,3-b]pyridin-6-yl)ethyl)-2-chlorobenzamide], under setting [2], the pIC50 was 7.09. With `COc1cc(C(=O)N2[C@H]3CC[C@@H]2[C@H](N)C3)cc2nc(-c3cc4ccc([C@H]5CCCN5C(C)=O)nc4n3CC3CC3)n(C)c12` [Example 247, 1-((R)-2-(2-(5-((1R,2R,4S)-2-amino-7-azabicyclo[2.2.1]heptane-7-carbonyl)-7-methoxy-1-methyl-1H-benzo[d]imidazol-2-yl)-1-(cyclopropylmethyl)-1H-pyrrolo[2,3-b]pyridin-6-yl)pyrrolidin-1-yl)ethan-1-one], the pIC50 under setting [1] was 7.44.

For the compound `C[C@@H](NC(=O)[C@H]1CC1(F)F)c1ccc2cc(-c3nc4cc(C(=O)N5C[C@H](N)[C@@H]6CC[C@H]5C6)cc(F)c4n3C3CC3)n(CC3CC3)c2n1` [Example 227, (R)-N-((R)-1-(2-(5-((1S,4R,5R)-4-amino-2-azabicyclo[3.2.1]octane-2-carbonyl)-1-cyclopropyl-7-fluoro-1H-benzo[d]imidazol-2-yl)-1-(cyclopropylmethyl)-1H-pyrrolo[2,3-b]pyridin-6-yl)ethyl)-2,2-difluorocyclopropane-1-carboxamide], the negative logarithm of the IC50 (pIC50) under setting [1] was 7.33.

As to `COC(=O)N(c1ccc2cc(-c3nc4cc(C(=O)N5CCC[C@@H](N)C5)cc(OC)c4n3C)n(CC3CC3)c2n1)C1CCC1` [Example 110, (R)-methyl (2-(5-(3-aminopiperidine-1-carbonyl)-7-methoxy-1-methyl-1H-benzo[d]imidazol-2-yl)-1-(cyclopropylmethyl)-1H-pyrrolo[2,3-b]pyridin-6-yl) (cyclobutyl)carbamate], the pIC50 under setting [1] was 6.29. Same read-out and setting: the value for `COc1cc(C(=O)N2CCC[C@@H](N)C2)cc2nc(-c3cc4ccc(-c5cccnc5-c5csc(N6CCCCC6)n5)nc4n3CC3CC3)n(C)c12` [Example 270, (R)-(3-aminopiperidin-1-yl)(2-(1-(cyclopropylmethyl)-6-(2-(2-(piperidin-1-yl)thiazol-4-yl)pyridin-3-yl)-1H-pyrrolo[2,3-b]pyridin-2-yl)-7-methoxy-1-methyl-1H-benzo[d]imidazol-5-yl)methanone] was 6.45. `COc1cc(C(=O)N2C[C@H](N)[C@@H]3CC[C@H]2C3)cc2nc(-c3cc4ccc([C@@H](C)NC(=O)c5ccccc5C(F)(F)F)nc4n3CC3CC3)n(C)c12` [Example 292, N-((R)-1-(2-(5-((1S,4R,5R)-4-amino-2-azabicyclo [3.2.1]octane-2-carbonyl)-7-methoxy-1-methyl-1H-benzo [d]imidazol-2-yl)-1-(cyclopropylmethyl)-1H-pyrrolo[2,3-b]pyridin-6-yl)ethyl)-2-(trifluoromethyl) benzamide]: under setting [2], the pIC50 was 6.89. On to `COc1cc(C(=O)N2C[C@H](N)CCN2C)cc2nc(-c3cc4ccc([C@@H](C)NC(=O)c5c(F)cc(F)cc5F)nc4n3CC3CC3)n(C)c12` [Example 157, N-((R)-1-(2-(5-((R)-5-amino-2-methylhexahydropyridazine-1-carbonyl)-7-methoxy-1-methyl-1H-benzo[d]imidazol-2-yl)-1-(cyclopropylmethyl)-1H-pyrrolo[2,3-b]pyridin-6-yl)ethyl)-2,4,6-trifluorobenzamide], for which the pIC50 under setting [1] was 7.06. Same read-out and setting: then `COc1cc(C(=O)N2C[C@H](N)[C@@H]3CC[C@H]2C3)cc2nc(-c3cc4ccc([C@@H](C)NC(=O)C56CC(F)(C5)C6)nc4n3CC3CC3)n(C)c12` [Example 223, N-[(1R)-1-[2-[5-[(1S,4R,5R)-4-amino-2-azabicyclo[3.2.1]octane-2-carbonyl]-7-methoxy-1-methyl-benzimidazol-2-yl]-1-(cyclopropylmethyl)pyrrolo[2,3-b]pyridin-6-yl]ethyl]-3-fluorobicyclo[1.1.1]pentane-1-carboxamide], with 7.24; and `COc1cc(C(=O)N2[C@H]3CC[C@@H]2[C@H](N)C3)cc2nc(-c3cc4ccc([C@@H](C)NC(=O)c5ccccc5C(F)F)nc4n3CC3CC3)n(C)c12` [Example 203, N-((R)-1-(2-(5-((1R,2R,4S)-2-amino-7-azabicyclo[2.2.1]heptane-7-carbonyl)-7-methoxy-1-methyl-1H-benzo[d]imidazol-2-yl)-1-(cyclopropylmethyl)-1H-pyrrolo[2,3-b]pyridin-6-yl)ethyl)-2-(difluoromethyl)benzamide], with 6.81; and `COc1cc(C(=O)N2[C@H]3CC[C@@H]2[C@H](N)C3)cc2nc(-c3cc4ccc(N5[C@@H](C)CCCS5(=O)=O)nc4n3CC3CC3)n(C)c12` [Example 103, ((1R,2R,4S)-2-amino-7-azabicyclo[2.2.1]heptan-7-yl) (2-(1-(cyclopropylmethyl)-6-((S)-3-methyl-1,1-dioxido-1,2-thiazinan-2-yl)-1H-pyrrolo[2,3-b]pyridin-2-yl)-7-methoxy-1-methyl-1H-benzo[d]imidazol-5-yl) methanone], with 7.65.
